Laboratory results taken from patent US20030134859A1 (SANKYO COMPANY, LIMITED, priority 2000, published 2003).
Like-named read-outs stand apart in the source and are kept apart here.

Legend:
Assay type in all cases: cell-based
[1] = tested on: Mouse preadipocyte strain 3T3-L1; experiment: Inhibition of differentiation as an indication of acetic acid uptake; settings: control (0.01% dimethylsulfoxide) = 100%; for activity at 0.1 µM: Mus musculus, read-out: Rate of Uptake (%) of [2-14C] acetic acid
How it was run: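 Differentiation is indexed by 1 hr [2-14C]acetic acid incorporation, measured by scintillation counting and given as uptake relative to 0.01% DMSO control (100%). Mouse 3T3-L1 preadipocytes, pre-grown 10 days, received 0.1 μM test substance throughout a 4-day insulin/IBMX/dexamethasone induction, followed by 2 days' maintenance culture.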

Rat white adipocytes = experiment: Stimulation of differentiation of the adipocytes (Oil Red O); settings: 100 nM test compound, 5 days, Oil Red O ABS550, control = 100%, blank = 0%, Table 7; for activity at 0.1 µM: Rattus norvegicus, Adipocyte, 120 h, read-out: Rate of Differentiation (%)
Experimental: Rat white adipocytes contained in the white adipocyte culture kit, which was purchased from HOKUDO, were used. Mediums for proliferation and for differentiation-inducing, which were contained in the white adipocyte culture kit purchased from HOKUDO, were used.
Immediately after arrival of the purchased cells, all medium for transportation was discarded and replaced with 5 ml of proliferation medium (/25 cm^2-flask) and the cells were cultured for one day. Then, a cell suspension was prepared with proliferation medium so as to be 83,000 cells/mL, and the suspension was plated into a type I 96-well collagen-coated microplate (SUMITOMO BAKELITE CO., ltd.) so as to be 5,000 cells/well (60 μL/well). For the blank, the proliferation medium without the cells was plated into the well (blank well) of each plate.
Further, 1) in the group treated with the test compound, 3 μL/well of a solution in which the test compound (100 μM) was dissolved in DMSO solution and diluted with differentiation-inducing medium by 20 times (final concentration of the test compound: 100 nM, final concentration of DMSO: 0.1% (v/v)) were added to the well where the cells were plated. 2) In the control group, 3 μL/well of DMSO solution that was diluted with differentiation-inducing medium by 20 times (final concentration of DMSO: 0.1% (v/v)) were added to the well where the cells were plated. Further, 3) in the blank group, 3 μL/well of DMSO solution that was diluted with differentiation-inducing medium by 20 times (final concentration: 0.1% (v/v)) were added to the blank well.
After culturing for 5 days, all differentiation-inducing medium was discarded and replaced with 60 μL of 10% (v/v) of formaldehyde solution (for fixation) in each well and the cells were kept stationary for 20 min at room temperature. After this the fixative solution was discarded and replaced with 60 μL of 0.2% (v/v) Triton X (Sigma-Aldrich Japan K. K.) solution in each well and kept stationary for 5 min at the room temperature. Then all Triton X solution was discarded and replaced with 60 μL of 60% (v/v) isopropanol solution containing dissolved Oil Red 0 (Sigma-Aldrich Japan K. K.) so as to be 0.3%, which was adipose tissue staining solution, and the well was left stationary for 10 min at room temperature. After the adipose tissue staining solution was discarded, the well was washed twice with 60 μL of 60% (v/v) isopropanol solution. Then, 100 μL of the DMSO were added to each well and stirred for 5 min at room temperature. The absorbance was measured at 550 nm (ABS550) with a multi-plate reader (LabsSystems), and the stained amount by Oil Red 0 was determined. The measured level at ABS550 in the control group was defined as 100%, while the level at ABS550 in the blank group was defined as 0%. The differentiation rate (%) of the adipocytes treated with the test compound was calculated.

human PPAR γ 2 = target: T1, human PPAR γ 2 (Homo sapiens, UniProt P37231); experiment: Inhibitory activity against PPAR γ transcription in the presence of agonist compound A, luciferase reporter; settings: in the presence of 10 nM compound A (agonist); MG63 cells transfected with pSG5-hPPARg and pGV-P2-PPRE; 24 hr
T1 construct: expressed in transfected cells; host or cells: human osteosarcoma MG63, transiently co-transfected with pSG5-hPPARg and the reporter pGV-P2-PPRE
T1 sequence (P37231 1-505): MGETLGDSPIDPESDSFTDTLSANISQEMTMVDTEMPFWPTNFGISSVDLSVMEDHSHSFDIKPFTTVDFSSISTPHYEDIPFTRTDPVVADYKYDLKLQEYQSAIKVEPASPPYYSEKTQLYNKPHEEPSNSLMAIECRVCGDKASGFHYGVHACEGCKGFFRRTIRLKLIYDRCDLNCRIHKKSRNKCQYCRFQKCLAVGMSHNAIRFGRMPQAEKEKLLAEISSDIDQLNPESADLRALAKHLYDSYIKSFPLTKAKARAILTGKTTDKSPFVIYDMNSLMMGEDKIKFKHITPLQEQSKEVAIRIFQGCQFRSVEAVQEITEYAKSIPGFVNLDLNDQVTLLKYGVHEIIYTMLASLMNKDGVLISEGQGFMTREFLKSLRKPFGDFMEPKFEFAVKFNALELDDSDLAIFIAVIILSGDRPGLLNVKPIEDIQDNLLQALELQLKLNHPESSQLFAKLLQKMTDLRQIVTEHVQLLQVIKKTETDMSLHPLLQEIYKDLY
Text: The primers of the polymerase chain reaction (hereinafter “PCR”) were designed according to the gene sequence of human PPAR γ 2 (GenBANK accession No. D83233). […] For this, 2 kinds of polynucleotides shown in the sequence numbers 1 and 2 in the sequence table described below (hereinafter “S1” and “AS1”, respectively) were used as PCR primers.
In order to determine transcriptional activity via PPAR γ, 2 kinds of polynucleotides represented in sequence numbers 3 and 4 in the sequence table described below (hereinafter “S2” and “AS2”, respectively) were used for construction of the reporter plasmid having PPAR responsive element. The DNA fragment inserted was designed based on the gene sequence in the promoter region of rat acylCo-A oxidase (J. D. Tugwood, EMBO J., 11 (2), pp433-439 (1992)). For insertion of the DNA fragment into the reporter plasmid pGV-P2 (TOYO INK MFG CO., LTD), a NheI site and an XhoI site were added to the S2 and AS2, respectively.
Using cDNA library (Clontech) derived from human adipose tissue as a template, DNA oligomers S1 and AS1 that were synthesized in the procedure 1 as primers and Ex-Taq™ (TAKARA BIO INC.) as a thermostable DNA polymerase-PCR was carried out. […] Each cycle consisted of incubation at 94° C. for 1 min for denaturation of the template, then at 55° C. for 30 sec for annealing of DNA oligomers the PCR primer, and then at 72° C. for 30 sec for extension of the chain. The obtained DNA fragments with approximately 1500 base pairs were digested at the Bgl II sites and were inserted into BamHI sites of pSG5. Thus a human PPAR γ expression plasmid named pSG5-hPPAR g was obtained.
Vector pGV-P2 digestion products was prepared by digestion using the restriction enzymes, NheI and XhoI, and purified by 1.0% agarose-gel electrophoresis. The DNA oligomers, S2 and AS2 obtained in Procedure 2, were mixed together and were incubated in a hot bath at 94° C. for 1 min. After the annealing was partially broken, they were further incubated at 25° C. for 1 hr. Thus double-stranded DNA with annealing of S2 and AS2 was formed. Then, the terminus of the double-stranded DNA with annealing of S2 and AS2 was phosphorylated with DNA polynucleotide kinase (TOYOBO CO., LTD). After that, it was ligated to the pGV-P2 digestion products which were prepared previously using the NheI site and XhoI site. Thus the reporter plasmid pGV-P2-PPRE was obtained.
Using the plasmid obtained by the procedures 3 and 4, transformation of Escherichia coli HB-101 strain was carried out by conventional methods. HB-101 strain having the plasmid was incubated in L-broth medium (containing 10 g of trypton (Difco), 5 g of yeast extract (Difco), 5 g of sodium chloride in 1 L of aqueous solution) containing 100 μg/ml of ampicillin at 37° C. for 17 hrs. Then, each plasmid was purified by the alkaline-SDS method and employed for the gene transfection to mammalian cells. After mixing the pSG5-hPPARg, PGV-P2-PPRE and LipofectAMINE reagent (GIBCO BRL), the human osteosarcoma MG63 was transiently transfected. Then the cells were recovered. The recovered cells were plated on a 96-well plate so as to be 30,000 cells/well and cultured in a CO2 incubator (NAPCO) at 37° C. for 24 hr under the condition of 5% CO2, 95%-RH.
Ten (10) nM of the following compound A (although compound A is described here as a representative compound, the compound is not limited to compound A, if the compound exerts a PPAR r agonistic activity) and various concentrations of the test compound were added to culturing medium of the cells prepared in the Procedure 5.

`O=C(Nc1ncc(Br)s1)c1cc([N+](=O)[O-])ccc1Cl` [Example 48, N-(5-Bromothiazol-2-yl)-(2-chloro-5-nitrophenyl)carboxamide] showed an activity at 0.1 µM ([1]; 3T3-L1, 0.1 μM test substance) of 70.3% and an activity at 0.1 µM (Rat white adipocytes) of 131%.

For `COC(=O)c1nccnc1NC(=O)c1cc([N+](=O)[O-])ccc1Cl` [Example 60, N-(2-Metboxycarbonylpyrazin-3-yl)-(2-chloro-5-nitrophenyl)carboxamide], the “Rate of Uptake (%) of [2-14C] acetic acid” value ([1]; 0.1 μM test substance) was 68.8% and the “Rate of Differentiation (%)” value (Rat white adipocytes) was 110.5%.

`Cc1ccnc(NC(=O)c2cc([N+](=O)[O-])ccc2Cl)c1[N+](=O)[O-]` [Example 63, N-(4-Methyl-3-nitropyridin-2-yl)-(2-chloro-5-nitrophenyl)carboxamide] gave an activity at 0.1 µM ([1]; 0.1 μM test substance) of 85.5% and an activity at 0.1 µM (Rat white adipocytes) of 120%.

In the case of `O=C(Nc1nc2ccc(F)cc2s1)c1cc([N+](=O)[O-])ccc1Cl` [Example 70, N-(6-Fluorobenzothiazol-2-yl)-(2-chloro-5-nitrophenyl)carboxamide], the activity at 0.1 µM ([1]; 3T3-L1, 0.1 μM test substance) is reported as 70.2% and the activity at 0.1 µM (Rat white adipocytes) is reported as 122%.

`O=C(Nc1ncccc1[N+](=O)[O-])c1cc([N+](=O)[O-])ccc1Cl` [Example 80, N-(3-Nitropyridin-2-yl)-(2-chloro-5-nitrophenyl)carboxamide] was tested, and the activity at 0.1 µM ([1]; 0.1 μM test substance) was 83.3% and the activity at 0.1 µM (Rat white adipocytes) was 118%.

`O=C(Nc1ccc(N2CCOCC2)cc1)c1cc([N+](=O)[O-])ccc1Cl` [Example 113, N-[4-(Morpholin-4-yl)phenyl]-(2-chloro-5-nitrophenyl)carboxamide] gave an activity at 0.1 µM ([1]; 3T3-L1, 0.1 μM test substance) of 84.6% and an activity at 0.1 µM (Rat white adipocytes) of 111%.

With `O=C(O)c1cccc(NC(=O)c2cc([N+](=O)[O-])ccc2Cl)c1` [Example 145, 3-(2-Chloro-5-nitrobenzoylamino)benzoic Acid] the activity at 0.1 µM ([1]; 3T3-L1, 0.1 μM test substance) was 87.6% and the activity at 0.1 µM (Rat white adipocytes) was 141%.

With `O=C(Nc1cccnc1)c1ccc(NC(=O)c2cc([N+](=O)[O-])ccc2Cl)cc1` [Example 148, N-[4-(Pyridin-3-ylaminocarbonyl)phenyl]-(2-chloro-5-nitrophenyl)carboxamide] the activity at 0.1 µM ([1]; 3T3-L1, 0.1 μM test substance) was 75.3% and the activity at 0.1 µM (Rat white adipocytes) was 119%.

Work on `O=C(Nc1ccc(C(=O)N2CCCC2)cc1)c1cc([N+](=O)[O-])ccc1Cl` [Example 160, N-[4-(Pyrrolidinylcarbonyl)phenyl]-(2-chloro-5-nitrophenyl)carboxamide] yielded an activity at 0.1 µM (Rat white adipocytes) of 128% and an IC50 (human PPAR γ 2) of 110 nM.

`CN1CCN(C(=O)c2ccc(NC(=O)c3cc([N+](=O)[O-])ccc3Cl)cc2)CC1` [Example 164, N-[4-(4-Methylpiperazin-1-ylcarbonyl)phenyl]-(2-chloro-5-nitrophenyl)carboxamide] gave an activity at 0.1 µM (Rat white adipocytes) of 125% and an IC50 (human PPAR γ 2) of 0.6 nM.

“N-(5-Bromo-3-nitropyridin-2-yl)-(−2-chloro-5-nitrophenyl-carboxamide [Example 84]” was tested, and the “Rate of Uptake (%) of [2-14C] acetic acid” value ([1]; 0.1 μM test substance) was 59.5% and the “Rate of Differentiation (%)” value (Rat white adipocytes) was 151.4%.
